The text below walks through data of patent publication US9771331B2, “Methods of identifying neuroprotective compounds for retinal ganglion cells” (THE JOHNS HOPKINS UNIVERSITY, priority 2005, dated 2017).

“Also recorded” adds a separate entry of the source.

Test [1] relates to retinal ganglion cells (RGCs). Kind of test: High-content neurite outgrowth screen of purified retinal ganglion cell cultures (number of outgrowth neurons). Format: cell-based, rat. Particulars: for activity compared with TPAO / activity of compounds similar to TPAO: 4 different concentrations; for number of outgrowth neurons: 50 ng/ml, 120 hours, versus cultures grown in medium only. How it is done:
Retinal ganglion cell harvest and immunopurification are performed as described above and in the specific Examples, below. A concentration range of neuroprotective compounds to be validated is prepared and added to test wells (e.g., to achieve final concentrations of 3 μM, 10 μM, 15 μM, 30 μM, 60 μM, 90 μM, 120 μM, and 150 μM in 1% DMSO in each well). For a neuroprotective compound obtained from the […]™ library, for example, 1 mg of desiccated compound can be resuspended in 22.2 μl of DMSO to a final stock solution of 150 mM. […] Afterwards, the solution can be stored in the dark at −20° C.
Neuroprotective compounds and positive control factors are added to the appropriate wells of a 96-well plate (e.g., 25 μl to each well in a 5× concentration prior to the seeding cells in a volume of 100 μl giving a final volume of 125 μl). Cells are incubated, stained, and imaged as described above and in the specific Examples, below. Experiments preferably are performed in duplicate. Following normalization to a negative control (e.g., a well containing medium only), a dose response curve can be plotted. Statistical software (e.g., from SPSS) can be used to perform curve fitting and analysis.
An efficient two-step immunomagnetic purification of a mixed cell population obtained from postnatal rat retina is used to provide a highly enriched population of RGCs for culture. The first step is an immunomagnetic depletion of […] non-RCGS using a cd11b/c. The second step is an immunomagnetic selection of RGCs with an antibody that binds Thy1 on the RGC cell surface. The cells are then released from the magnetic beads by digesting the DNA linker with a low concentration of DNase. Cells are grown on poly-d-lysine/laminin coated plastic plates in a basic medium (Neurobasal media, B27 supplement, glutamine, and penicillin/streptomycin).
(§1) The purified Thy-1 immunoreactive cells are resuspended in growth media (Neurobasal media, B27 supplement, 2 mM glutamine, and 1 U/ml penicillin/streptomycin) and quantified using a hematocytometer. Cells are seeded in 100 μl at a density of 4000 cells/well (150/mm^2) in 96 well culture dishes (Falcon) that had been sequentially coated with poly-d-lysine (0.01 mg/ml) and laminin (0.01 μg/μl) (Sigma). Each well either contains 25 μl of media alone or 5× drug or 5×BDNF and forskolin. Final concentrations are: DMSO (1%), drug (20 to 30 μM), BDNF (50 ng/ml) and forskolin (10 μM). Culture dishes are placed in an incubator maintained at 37° C. and 5% CO2. One hour after seeding, a post-seeding viability is determined by staining with Hoechst and TOTO3 and calculating the percent of live cells.
(§2) After 120 hours of incubation, cells are stained with 5 μM Hoechst and 10 μM Calcein AM (Molecular Probes). Calcein AM (Calcein acetoxymethyl), the dye that is used to stain living cells and their neurites, is a green dye that is permeant to living cells. After internalization by cells, the nonfluorescent calcein AM is converted to fluorescent calcein upon hydrolysis of the acetoymethyl ester by intracellular esterases. Cleavage of the AM group occurs spontaneously when calcein AM is suspended in aqueous solution resulting in a significant increase in background fluorescence over time. TOTO3, which stains the nuclei of dead cells, can be used to determine viability.
Fifteen stereotypic field are autofocus imaged on a Cellomics […]® High Content Scan Reader using epifluorescence and filter sets corresponding to each of the two dyes. This instrument employs a Zeiss fluorescence microscope, a temperature and CO2 live cell chamber, an integrated liquid handling system, and image analysis software that permits staining, imaging, and analysis of the cells and their neurites in approximately 5 hours per plate.

The subject of test [2] is retinal ganglion cells (RGCs). The test is described as follows: RGCs on glass coverslips in 24-well plates, neurofilament immunostaining, counting neurons with neurite extension. Particulars: neurofilament antibody. Format: cell-based, rat. How it is done:
FIG. 4. […] Immunopurified postnatal rat RGCs were cultured in increasing concentrations of TPAO in the presence of 1% DMSO. […] The effect of TPAO is synergistic with both BDNF and forskolin.
Although the developed technique for performing cell culture is effective and objective, it is desirable to assess the outcome of a screen using a different technique. Thus, for example, the technique of culturing cells on poly d-lysine and laminin coated coverslips in 24 well culture dishes under various culture conditions can be followed by immunostaining with anti-neurofilament antibody and quantitative analysis.
After determination of the dose response relationship and concentration at which the neuroprotective compound has it is maximal effect in culture, cells can be cultured on poly d-lysine and laminin coated cover slips (BD Pharmingen) in the presence of the neuroprotective compound, with appropriate positive and negative controls. […]
For example, in one embodiment cells are fixed with 4% paraformaldehyde, washed with PBS, blocked with PBS/0.1% Triton X/20% goat serum, and incubated overnight in PBS/0.1% Triton X/20% goat serum containing 1:100 dilution of rabbit anti-neurofilament (68 kd) antibody (Chemicon). […] The number of cells with neurite outgrowth at 3 different radii is determined (Scholl analysis) and compared using Student t test.

Test [3] deals with RGCs. Particulars: peptide trophic factors; Meyer-Franke et al. 1995; cited from earlier work.
Test [4] relates to retinal ganglion cells (RGCs). The test is described as follows: Overall cell survival of cultured RGCs after 120 hours. Format: cell-based, rat. The following applies: 50 ng/ml. The protocol:
as §1, §2
Images are processed using the Cellomics Extended Neurite Outgrowth software program. In the initial image processing, cells are identified on the Hoechst channel and selected based on size such that of clusters of cells may be excluded from analysis. In addition, each nuclei on the Hoechst channel is matched to a calcein-stained cell and counted as a “valid neuron” (i.e., a live cell). Neurons can be further selected based on size in the calcein channel. The Extended Neurite Outgrowth program is used to trace neurites extending from these selected neurons. The mean neurite length, mean neurite count, mean number of branch points, and mean number of crosspoints are determined. In addition, the percent of cells with neurite features (e.g., neurite length, neurite count) surpassing a threshold of one standard deviation above the mean neurite characteristic of a set of reference wells containing cells and growth medium without additional growth factors is determined. The “neurite outgrowth” measurement is based on the combined mean neurite length and mean neurite count.

For the molecule `CC1(C)CC(=NOC(=O)c2ccccc2)CC(C)(C)N1` [2,2,6,6-tetramethyl-4-piperidinone O-benzoyloxime], in test [1], the “activity compared with TPAO” value is on record as “less than that of TPAO” and the “activity of compounds similar to TPAO” value is “showed activity”.
Consider `CC1(C)CC(=NNC(N)=S)CC(C)(C)N1` [2,2,6,6-tetramethyl-4-piperidinone thiosemicarbazone], for which, in test [1], the “activity compared with TPAO” value was “less than that of TPAO” and the “activity of compounds similar to TPAO” value is listed as “showed activity”.
Consider `CC(=O)ON=C1CC(C)(C)NC(C)(C)C1` [TPAO, 2,2,6,6-tetramethyl-4-piperidinone O-acetyloxime], for which, in test [1], the “effect in combination with BDNF and forskolin” value is listed as “synergistic”. For the same molecule, in test [1] (dose response 3 μM to 150 μM), the “dose dependence of survival/growth of neurite-bearing RGCs” value is “dose-dependent manner”. The “activity if the medium was changed at 24 hours” value in test [1] (medium change at 24 hours) was “lost”. Moreover, the “effect on neurons with a neurite extension greater than one cell body in diameter” value in test [2] is “demonstrated”.
Consider “BDNF: peptide trophic factor known to promote RGC survival; positive control”, for which the “concentration of maximal effect on RGCs” value in test [3] is 10 ng/mL. The “number of outgrowth neurons” value in test [1] is listed as “significantly increased; also recorded: Statistically significant increases”. The “overall cell survival (number of surviving cells)” value (“overall cell survival” for short) in test [4] is recorded as “slight increase in the number of surviving cells that did not reach statistical significance”.
For the molecule “GDF8: BMP-related myostatin/Gdf8 (Growth and differentiation factor 8)”, the “number of outgrowth neurons” value in test [1] is “significantly increased; also recorded: Statistically significant increases”. Further, in test [4], the “overall cell survival” value is listed as “slight increase in the number of surviving cells that did not reach statistical significance”.
In the case of “TGFα: growth factor tested at 50 ng/ml on cultured RGCs”, in test [1], the “number of outgrowth neurons” value is “No significant change”. Besides, the “overall cell survival” value in test [4] is given as “no effect”.
Taken in the same sequence, the figures for “TGFβ1: growth factor tested at 50 ng/ml on cultured RGCs” were “No significant change” and “no effect”.

B1: CNTF: peptide trophic factor (protein, UniProt P26441 1-200, looked up)
Ciliary neurotrophic factor: MAFTEHSPLTPHRRDLCSRSIWLARKIRSDLTALTESYVKHQGLNKNINLDSADGMPVASTDQWSELTEAERLQENLQAYRTFHVLLARLLEDQQVHFTPTEGDFHQAIHTLLLQVAAFAYQIEELMILLEYKIPRNEADGMPINVGDGGLFEKKLWGLKVLQELSQWTVRSIHDLRFISSHQTGIPARGSHYIANNKKM
Take B1: the “concentration of maximal effect on RGCs” value in test [3] was 0.1 ng/mL.

B2: BMP13: bone morphogenetic protein, member of the TGFβ superfamily (protein, UniProt Q6KF10 336-455, looked up)
Growth/differentiation factor …: TAFASRHGKRHGKKSRLRCSKKPLHVNFKELGWDDWIIAPLEYEAYHCEGVCDFPLRSHLEPTNHAIIQTLMNSMDPGSTPPSCCVPTKLTPISILYIDAGNNVVYKQYEDMVVESCGCR
For B2, the “number of outgrowth neurons” value in test [1] is “significantly increased; also recorded: Statistically significant increases”. In addition, the “overall cell survival” value in test [4] is given as “no effect”.

B3: TGFβ2: growth factor tested at 50 ng/ml on cultured RGCs (protein, UniProt P61812 303-414, looked up)
Transforming growth factor …: ALDAAYCFRNVQDNCCLRPLYIDFKRDLGWKWIHEPKGYNANFCAGACPYLWSSDTQHSRVLSLYNTINPEASASPCCVSQDLEPLTILYYIGKTPKIEQLSNMIVKSCKCS
B3: the “number of outgrowth neurons” value in test [1] is recorded as “No significant change”. Further, the “overall cell survival” value in test [4] is listed as “no effect”.
